Results published in ChEMBL document CHEMBL1143200, “Design and physicochemical properties of new fluorescent ligands of protein kinase C isozymes focused on CH/pi interaction” (Bioorg Med Chem, 2008).

Experiments:
[1] = target: Protein kinase C eta type (Homo sapiens, UniProt P24723); assay: Displacement of [3H]PDBu from PKCeta C1B domain
[2] = target: T1, Protein kinase C beta type (Homo sapiens, UniProt P05771); assay: Displacement of [3H]PDBu from PKCbeta C1B domain
[3] = target: T2, Protein kinase C alpha type (Homo sapiens, UniProt P17252); assay: Displacement of [3H]PDBu from PKCalpha C1A domain
[4] = target: Protein kinase C theta type (Homo sapiens, UniProt Q04759); assay: Displacement of [3H]PDBu from PKCtheta C1B domain
[5] = target: T1, Protein kinase C beta type; assay: Displacement of [3H]PDBu from PKCbeta C1A domain
[6] = target: Protein kinase C delta type (Homo sapiens, UniProt Q05655); assay: Displacement of [3H]PDBu from PKCdelta C1B domain
[7] = target: T3, Protein kinase C epsilon type (Homo sapiens, UniProt Q02156); assay: Displacement of [3H]PDBu from PKCepsilon C1B domain
T3 sequence (Q02156 whole entry): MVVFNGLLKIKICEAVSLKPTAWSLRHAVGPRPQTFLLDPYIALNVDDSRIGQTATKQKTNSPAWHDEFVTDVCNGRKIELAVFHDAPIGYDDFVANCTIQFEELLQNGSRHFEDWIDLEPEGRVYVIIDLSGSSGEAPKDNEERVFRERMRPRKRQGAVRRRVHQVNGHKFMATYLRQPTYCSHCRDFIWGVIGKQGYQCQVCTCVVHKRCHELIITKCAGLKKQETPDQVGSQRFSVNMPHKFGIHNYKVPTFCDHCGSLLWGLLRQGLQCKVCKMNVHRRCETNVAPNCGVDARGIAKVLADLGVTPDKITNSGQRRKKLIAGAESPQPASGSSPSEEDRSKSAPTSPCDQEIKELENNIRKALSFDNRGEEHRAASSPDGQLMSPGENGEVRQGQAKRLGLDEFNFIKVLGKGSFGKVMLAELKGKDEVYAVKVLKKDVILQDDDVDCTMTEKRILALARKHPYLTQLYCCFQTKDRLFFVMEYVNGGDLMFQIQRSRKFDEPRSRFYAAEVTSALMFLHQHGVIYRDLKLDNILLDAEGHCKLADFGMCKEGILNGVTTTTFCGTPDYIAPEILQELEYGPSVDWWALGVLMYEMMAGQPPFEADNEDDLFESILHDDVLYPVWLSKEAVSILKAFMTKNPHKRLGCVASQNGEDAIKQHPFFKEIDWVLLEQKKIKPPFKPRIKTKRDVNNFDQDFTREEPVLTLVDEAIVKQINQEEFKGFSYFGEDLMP

[8] = target: T4, Protein kinase C gamma type (Homo sapiens, UniProt P05129); assay: Displacement of [3H]PDBu from PKCgamma C1A domain
[9] = target: T4, Protein kinase C gamma type; assay: Displacement of [3H]PDBu from PKCgamma C1B domain
[10] = target: T2, Protein kinase C alpha type; assay: Displacement of [3H]PDBu from PKCalpha C1B domain

T1 sequence (P05771 whole entry, the tested form may be a part): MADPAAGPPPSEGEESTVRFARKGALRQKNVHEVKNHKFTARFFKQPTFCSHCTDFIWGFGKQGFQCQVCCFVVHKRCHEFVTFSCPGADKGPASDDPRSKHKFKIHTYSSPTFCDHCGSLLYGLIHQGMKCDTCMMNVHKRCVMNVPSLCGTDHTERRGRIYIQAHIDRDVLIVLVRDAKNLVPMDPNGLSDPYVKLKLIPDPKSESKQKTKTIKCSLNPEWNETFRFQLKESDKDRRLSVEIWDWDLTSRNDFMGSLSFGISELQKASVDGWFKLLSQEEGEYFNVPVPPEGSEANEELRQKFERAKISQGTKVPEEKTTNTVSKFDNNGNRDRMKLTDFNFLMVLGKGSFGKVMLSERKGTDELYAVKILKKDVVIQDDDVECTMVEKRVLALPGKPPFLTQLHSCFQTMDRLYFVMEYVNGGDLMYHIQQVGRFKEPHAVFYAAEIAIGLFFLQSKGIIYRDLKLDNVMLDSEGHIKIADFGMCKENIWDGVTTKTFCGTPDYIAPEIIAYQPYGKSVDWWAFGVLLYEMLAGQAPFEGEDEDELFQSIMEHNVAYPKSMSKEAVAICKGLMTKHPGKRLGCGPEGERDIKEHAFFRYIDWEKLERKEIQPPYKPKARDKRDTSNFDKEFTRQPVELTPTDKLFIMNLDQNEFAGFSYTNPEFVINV
Protein kinase C theta type, sequence (Q04759 whole entry, the tested form may be a part): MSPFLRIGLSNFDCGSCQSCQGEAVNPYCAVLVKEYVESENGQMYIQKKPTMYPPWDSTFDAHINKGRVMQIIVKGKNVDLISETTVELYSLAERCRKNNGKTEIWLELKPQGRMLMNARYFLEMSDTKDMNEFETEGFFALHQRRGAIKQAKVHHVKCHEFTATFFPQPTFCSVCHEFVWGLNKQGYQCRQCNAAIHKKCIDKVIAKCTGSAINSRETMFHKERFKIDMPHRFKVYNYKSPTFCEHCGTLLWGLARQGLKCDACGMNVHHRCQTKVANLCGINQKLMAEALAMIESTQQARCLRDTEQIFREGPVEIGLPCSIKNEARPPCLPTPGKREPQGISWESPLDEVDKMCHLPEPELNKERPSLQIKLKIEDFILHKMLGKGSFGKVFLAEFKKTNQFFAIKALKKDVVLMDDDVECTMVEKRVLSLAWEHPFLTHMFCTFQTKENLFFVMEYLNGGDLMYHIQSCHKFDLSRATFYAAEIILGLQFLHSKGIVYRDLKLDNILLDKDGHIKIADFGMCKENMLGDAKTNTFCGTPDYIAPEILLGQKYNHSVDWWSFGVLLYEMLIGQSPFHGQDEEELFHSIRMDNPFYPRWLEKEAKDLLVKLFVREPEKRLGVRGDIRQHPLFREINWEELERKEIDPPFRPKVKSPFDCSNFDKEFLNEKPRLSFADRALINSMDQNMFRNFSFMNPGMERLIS
Protein kinase C delta type, sequence (Q05655 whole entry, the tested form may be a part): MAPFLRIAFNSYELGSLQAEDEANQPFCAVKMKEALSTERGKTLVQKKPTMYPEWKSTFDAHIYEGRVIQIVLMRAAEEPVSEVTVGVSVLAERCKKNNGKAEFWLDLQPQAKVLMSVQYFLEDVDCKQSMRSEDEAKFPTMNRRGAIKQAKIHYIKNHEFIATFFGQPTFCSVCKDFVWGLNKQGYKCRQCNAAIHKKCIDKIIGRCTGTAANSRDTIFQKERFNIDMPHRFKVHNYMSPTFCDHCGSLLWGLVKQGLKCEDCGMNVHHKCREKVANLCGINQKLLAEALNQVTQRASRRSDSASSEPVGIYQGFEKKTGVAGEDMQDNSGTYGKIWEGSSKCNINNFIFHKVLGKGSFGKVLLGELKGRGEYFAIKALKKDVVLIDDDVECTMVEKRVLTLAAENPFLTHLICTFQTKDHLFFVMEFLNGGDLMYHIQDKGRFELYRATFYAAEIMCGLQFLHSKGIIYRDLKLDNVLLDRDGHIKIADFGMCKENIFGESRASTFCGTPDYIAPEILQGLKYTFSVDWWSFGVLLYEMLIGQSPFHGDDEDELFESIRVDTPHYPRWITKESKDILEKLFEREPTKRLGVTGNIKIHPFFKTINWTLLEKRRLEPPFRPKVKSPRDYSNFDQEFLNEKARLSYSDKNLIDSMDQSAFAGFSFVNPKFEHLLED
Protein kinase C eta type, sequence (P24723 whole entry, the tested form may be a part): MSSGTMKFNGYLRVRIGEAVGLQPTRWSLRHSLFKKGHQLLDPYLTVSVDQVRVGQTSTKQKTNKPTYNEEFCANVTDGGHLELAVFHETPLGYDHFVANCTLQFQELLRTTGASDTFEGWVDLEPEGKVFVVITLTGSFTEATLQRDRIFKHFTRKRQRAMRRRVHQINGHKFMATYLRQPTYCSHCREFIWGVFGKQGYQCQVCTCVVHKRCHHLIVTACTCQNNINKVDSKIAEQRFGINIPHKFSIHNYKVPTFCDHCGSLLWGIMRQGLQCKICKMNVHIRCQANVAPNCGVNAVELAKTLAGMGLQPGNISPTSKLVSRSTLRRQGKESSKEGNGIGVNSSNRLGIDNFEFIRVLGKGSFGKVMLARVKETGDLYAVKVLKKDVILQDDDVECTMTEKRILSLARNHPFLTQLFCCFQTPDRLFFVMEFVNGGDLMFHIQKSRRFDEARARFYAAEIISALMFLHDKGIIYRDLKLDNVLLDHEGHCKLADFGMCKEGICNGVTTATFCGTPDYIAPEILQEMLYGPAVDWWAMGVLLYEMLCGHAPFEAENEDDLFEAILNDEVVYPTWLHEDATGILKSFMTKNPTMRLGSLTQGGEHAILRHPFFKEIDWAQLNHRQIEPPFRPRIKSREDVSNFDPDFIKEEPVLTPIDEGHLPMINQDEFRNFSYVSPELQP

**Q.** What does the source list for `CC(C)[C@H]1C(=O)N[C@H](CO)Cc2cn3ncc4ccc(c2c43)N1C`?
**A.** Ki [1]: 9.9 nM; Ki [2]: 5960 nM; Ki [3]: 85.5 nM; Ki [4]: 18.6 nM; Ki [5]: 88 nM; Ki [6]: 17.7 nM; Ki [7]: 22.5 nM; Ki [8]: 61.3 nM; Ki [9]: 225 nM; Ki [10]: 357 nM

**Q.** `CC(C)[C@H]1C(=O)N[C@H](CO)Cc2cn3nc(C(F)(F)F)c4ccc(c2c43)N1C` was tested. Which Ki [1] did it give?
**A.** Its Ki is 29.7 nM.

**Q.** What about the Ki [2] of the same molecule?
**A.** The Ki was 9380 nM.

**Q.** What about the Ki [3] of the same molecule?
**A.** Its Ki is 112 nM.

**Q.** What about the Ki [4] of the same molecule?
**A.** Its Ki is 51.1 nM.

**Q.** And the Ki [5]?
**A.** The Ki was 127 nM.

**Q.** What about the Ki [6] of the same molecule?
**A.** The Ki was 52.1 nM.

**Q.** And the Ki [7]?
**A.** Its Ki is 80.1 nM.

**Q.** And the Ki [8]?
**A.** Its Ki is 234 nM.

**Q.** What about the Ki [9] of the same molecule?
**A.** The Ki was 1100 nM.

**Q.** What about the Ki [10] of the same molecule?
**A.** The Ki was 721 nM.

**Q.** How did the Ki [1] turn out when `Cc1nn2cc3c4c(ccc1c42)N(C)[C@@H](C(C)C)C(=O)N[C@H](CO)C3` was run?
**A.** Its Ki is 223 nM.

**Q.** And the Ki [2]?
**A.** The Ki was > 10000 nM.

**Q.** And the Ki [3]?
**A.** Its Ki is 1090 nM.

**Q.** And the Ki [4]?
**A.** The Ki was 149 nM.

**Q.** And the Ki [5]?
**A.** Its Ki is 1100 nM.

**Q.** And the Ki [6]?
**A.** The Ki was 128 nM.

**Q.** And the Ki [7]?
**A.** The Ki was 407 nM.

**Q.** And the Ki [8]?
**A.** Its Ki is 1510 nM.

**Q.** What about the Ki [9] of the same molecule?
**A.** The Ki was 2580 nM.

**Q.** What about the Ki [10] of the same molecule?
**A.** Its Ki is 2620 nM.

**Q.** `CC(C)[C@H]1C(=O)N[C@H](CO)Cc2c[nH]c3cccc(c23)N1C` [INDOLACTUM] was tested. Which Ki [2] did it give?
**A.** Its Ki is 4000 nM.

**Q.** What about the Ki [10] of the same molecule?
**A.** Its Ki is 140 nM.
